Tested on: not listed separately
Assay: log P determination by HPLC retention times (alkan-2-one calibration)
Settings: log P(HCOOH), HCOOH; preparation examples in the text

Row | SMILES | chromatographic logP
1 | CC1CCC(=O)N1N=C(c1ccccc1)c1ccccc1 (stereo not drawn) [XXVI-1, 1-[(Diphenylmethylene)amino]-5-methylpyrrolidin-2-one] | 2.73
2 | CC1CCn2nc(-c3ccc(F)cc3)c(I)c21 (stereo not drawn) [VIII-21, 2-(4-Fluorophenyl)-3-iodo-4-methyl-5,6-dihydro-4H-pyrrolo[1,2-b]pyrazole] | 3.67
3 | Fc1ccc(-c2nn3c(c2I)CCOC3)cc1 [VIIIa-1, 2-(4-Fluorophenyl)-3-iodo-4,5-dihydropyrazolo[1,5-c][1,3]oxazine] | 3.23
4 | Fc1ccc(-c2nn3c(c2I)CCCC3)cc1 [VIII-1, 2-(4-Fluorophenyl)-3-iodo-4,5,6,7-tetrahydropyrazolo[1,5-a]pyridine] | 3.79
5 | OCc1cc(-c2ccccc2)n[nH]1 [XIV-1, (3-Phenyl-1H-pyrazol-5-yl)methanol] | 1.14
6 | [O-]c1on[n+]2c1CCCCC2 [III-1, 5,6,7,8-Tetrahydro-4H-[1,2,3]oxadiazolo[3,4-a]azepin-9-ium 3-olate] | 0.6
7 | FC(F)(F)c1ccc(C#Cc2ccncc2)cc1 [II-1, 4-{[4-(Trifluoromethyl)phenyl]ethynyl}pyridine] | 2.86
8 | CC1CCn2nc(-c3ccc(F)cc3)c(C(=O)O)c21 (stereo not drawn) [XXXI-2, 2-(4-Fluorophenyl)-4-methyl-5,6-dihydro-4H-pyrrolo[1,2-b]pyrazole-3-carboxylic acid] | 1.84
9 | c1ccc(-c2cc3n(n2)CCSC3)cc1 [VIIb-1, 2-Phenyl-6,7-dihydro-4H-pyrazolo[5,1-c][1,4]thiazine] | 2.46
10 | OCc1cc(-c2ccc(F)cc2)nn1CCCl [XIII-1, [1-(2-Chloroethyl)-3-(4-fluorophenyl)-1H-pyrazol-5-yl]methanol] | 1.84
11 | COC(=O)c1cc(-c2ccc(F)cc2)nn1CCCl [XI-1, Methyl 1-(2-chloroethyl)-3-(4-fluorophenyl)-1H-pyrazole-5-carboxylate] | 3.58
12 | Ic1c(-c2ccccc2)nn2c1COCC2 [VIII-15, 3-Iodo-2-phenyl-6,7-dihydro-4H-pyrazolo[5,1-c][1,4]oxazine] | 2.82
13 | CCOC(=O)CC(=NN1CCCC1=O)c1ccccc1F [XXVIII-4, Ethyl 3-(2-fluorophenyl)-3-[(2-oxopyrrolidin-1-yl)imino]propanoate] | 1.97
14 | Clc1ccc(-c2cc3n(n2)CCC3)cc1 [VII-4, 2-(4-Chlorophenyl)-5,6-dihydro-4H-pyrrolo[1,2-b]pyrazole] | 2.86
15 | Ic1c(-c2ccsc2)nn2c1CCC2 [VIII-8, 2-[3-Thienyl]-3-iodo-5,6-dihydro-4H-pyrrolo[1,2-b]pyrazole] | 2.97
16 | Clc1ccc(-c2nn3c(c2I)CCC3)cc1 [VIII-4, 2-(4-Chlorophenyl)-3-iodo-5,6-dihydro-4H-pyrrolo[1,2-b]pyrazole] | 3.88
17 | COC(=O)c1c(-c2ccc(F)cc2)nn2c1CCC2C (stereo not drawn) [XXX-1, Methyl 2-(4-fluorophenyl)-6-methyl-5,6-dihydro-4H-pyrrolo[1,2-b]pyrazole-3-carboxylate] | 2.84
18 | Fc1ccc(-c2nn3c(c2Br)COCC3)cc1 [VIII-17, 3-Bromo-2-(4-fluorophenyl)-6,7-dihydro-4H-pyrazolo[5,1-c][1,4]oxazine] | 2.9
19 | Fc1ccc(-c2cc3n(n2)CCCC3)cc1 [VII-1, 2-(4-Fluorophenyl)-4,5,6,7-tetrahydropyrazolo[1,5-a]pyridine] | 2.76

Same assay, conditions: pH 7, log P(pH7), pH7; preparation examples in the text

Row | SMILES | chromatographic logP
20 | COc1ccc(C#Cc2ccncc2)cc1 [II-3, 4-{[4-(Methoxy)phenyl]ethynyl}pyridine] | 2.68

Tested on: Pyrenophora teres
Assay: Pyrenophora teres test (barley)/protective
Assay type: in vivo
Settings: in vivo
Experimental: Solvent: 49 parts by weight of N,N-dimethylformamide
Emulsifier: 1 part by weight of alkylaryl polyglycol ether
To produce a suitable preparation of active compounds, 1 part by weight of active compound is mixed with the stated amounts of solvent and emulsifier, and the concentrate is diluted with water to the desired concentration.
To test for protective activity, young barley plants are sprayed with the active compound preparation at the stated application rate. 1 day after the treatment, the plants are inoculated with an aqueous spore suspension of Pyrenophora teres and then remain at 100% rel. atmospheric humidity and 22° C. for 48 h. The plants are then placed in a greenhouse at 80% rel. atmospheric humidity and a temperature of 20° C.
Evaluation is carried out 7-9 days after the inoculation. 0% means an efficacy which corresponds to that of the control, whereas an efficacy of 100% means that no infection is observed.

Row | SMILES | efficacy in % [%]
21 | CC(C)CNc1cc(-c2c(-c3cccc(F)c3)nn3c2CCC3)ccn1 [Example 73] | 70
22 | Nc1cc(-c2c(-c3ccc(F)cc3)nn3c2CCOC3)ccn1 [Example 103] | 90
23 | CC(C)CC(=O)Nc1cc(-c2c(-c3ccc(F)cc3)nn3c2CCOC3(C)C)ccn1 [Example 105] | 95
24 | CC(C)CNc1cc(-c2c(-c3ccccc3)nn3c2CCC3)ccn1 [Example 72] | 80

From patent US8507472B2 (priority 2010, dated 2013)
